Experimental findings from patent US20250135006A1, “AMPHIPHILIC TLR7/8 ADJUVANTS AND USES THEREOF” (Pfizer Inc., priority 2023, published 2025) are described below.

The target in experiment [1] is T1, human toll like receptor 7 (hTLR7) (Homo sapiens, UniProt Q9NYK1).
T1 construct: host or cells: HEK293 (HEK-Blue hTLR7)
T1 sequence (Q9NYK1 27-1049): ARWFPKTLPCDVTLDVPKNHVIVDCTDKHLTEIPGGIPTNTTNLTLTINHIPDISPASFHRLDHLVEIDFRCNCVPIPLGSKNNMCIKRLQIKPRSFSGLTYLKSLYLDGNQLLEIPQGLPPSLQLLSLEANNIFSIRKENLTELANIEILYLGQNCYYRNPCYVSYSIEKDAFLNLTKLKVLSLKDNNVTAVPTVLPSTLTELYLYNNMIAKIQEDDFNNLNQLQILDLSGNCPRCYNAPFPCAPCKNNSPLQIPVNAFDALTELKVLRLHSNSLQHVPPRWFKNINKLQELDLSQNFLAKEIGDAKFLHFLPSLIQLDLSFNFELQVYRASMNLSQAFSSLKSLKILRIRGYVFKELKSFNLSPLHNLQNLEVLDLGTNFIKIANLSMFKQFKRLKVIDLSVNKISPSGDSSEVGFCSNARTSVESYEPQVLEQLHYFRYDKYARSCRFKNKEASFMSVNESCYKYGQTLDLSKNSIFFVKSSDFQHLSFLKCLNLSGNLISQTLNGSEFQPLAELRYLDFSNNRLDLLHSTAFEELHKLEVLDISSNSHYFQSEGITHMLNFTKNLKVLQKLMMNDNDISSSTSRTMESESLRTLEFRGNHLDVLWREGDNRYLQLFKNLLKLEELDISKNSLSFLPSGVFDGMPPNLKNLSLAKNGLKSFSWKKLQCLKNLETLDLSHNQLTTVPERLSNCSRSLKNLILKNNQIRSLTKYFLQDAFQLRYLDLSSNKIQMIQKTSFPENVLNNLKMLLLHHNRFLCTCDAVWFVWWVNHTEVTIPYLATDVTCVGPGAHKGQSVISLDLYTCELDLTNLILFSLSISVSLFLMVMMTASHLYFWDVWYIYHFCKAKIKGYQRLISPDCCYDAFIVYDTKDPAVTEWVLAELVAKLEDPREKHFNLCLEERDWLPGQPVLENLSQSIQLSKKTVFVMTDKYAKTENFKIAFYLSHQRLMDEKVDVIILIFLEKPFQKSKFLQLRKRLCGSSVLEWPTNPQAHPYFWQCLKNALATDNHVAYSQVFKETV
Kind of experiment: hTLR7 in-vitro functional assay (HEK-Blue hTLR7 SEAP reporter). The class given is cell-based. Particulars: HEK-Blue hTLR7 cells, overnight incubation.

Experiment [2] addresses T2, human toll like receptor 8 (hTLR8) (Homo sapiens, UniProt Q9NR97).
T2 construct: host or cells: HEK293 (HEK-Blue hTLR8)
T2 sequence (Q9NR97 27-1041): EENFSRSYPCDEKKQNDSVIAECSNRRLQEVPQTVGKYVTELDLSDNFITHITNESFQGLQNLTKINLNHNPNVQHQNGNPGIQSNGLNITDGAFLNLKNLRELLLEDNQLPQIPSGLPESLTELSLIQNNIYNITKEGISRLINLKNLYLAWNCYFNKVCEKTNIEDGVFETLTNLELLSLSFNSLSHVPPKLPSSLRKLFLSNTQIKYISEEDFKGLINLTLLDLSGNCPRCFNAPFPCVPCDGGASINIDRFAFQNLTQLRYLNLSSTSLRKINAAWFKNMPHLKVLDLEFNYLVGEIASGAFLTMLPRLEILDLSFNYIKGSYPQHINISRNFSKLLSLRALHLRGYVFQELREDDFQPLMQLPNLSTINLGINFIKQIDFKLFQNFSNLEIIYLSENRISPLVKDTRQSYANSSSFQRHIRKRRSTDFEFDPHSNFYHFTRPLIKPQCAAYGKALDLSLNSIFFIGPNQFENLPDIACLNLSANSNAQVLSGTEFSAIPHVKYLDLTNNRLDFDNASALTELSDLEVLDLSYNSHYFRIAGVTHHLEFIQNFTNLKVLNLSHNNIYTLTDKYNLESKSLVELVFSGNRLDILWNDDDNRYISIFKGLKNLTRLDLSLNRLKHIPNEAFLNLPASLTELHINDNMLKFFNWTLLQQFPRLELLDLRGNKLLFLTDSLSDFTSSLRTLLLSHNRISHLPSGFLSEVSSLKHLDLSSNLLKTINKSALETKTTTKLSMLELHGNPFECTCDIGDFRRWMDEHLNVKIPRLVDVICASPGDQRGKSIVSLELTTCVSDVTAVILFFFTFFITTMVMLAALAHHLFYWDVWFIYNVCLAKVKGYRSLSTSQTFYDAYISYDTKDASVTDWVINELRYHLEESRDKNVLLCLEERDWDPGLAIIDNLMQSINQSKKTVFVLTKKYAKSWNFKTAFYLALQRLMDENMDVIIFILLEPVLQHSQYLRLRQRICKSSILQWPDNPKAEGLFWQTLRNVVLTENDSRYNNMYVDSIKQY
Kind of experiment: hTLR8 in-vitro functional assay (HEK-Blue hTLR8 SEAP reporter). Format: cell-based. Particulars: HEK-Blue hTLR8 cells, overnight incubation.

Another experiment deals with RSV A strain (M37). The experiment in a line: In vivo immunogenicity with RSV antigen, RSV microneutralization assay. Particulars: 0.5 μg bivalent RSV antigen alone or mixed with 2 nmol adjuvant, intramuscular days 0 and 21, sera day 35. On the set-up: species or system female BALB/c mice. As to the method: In two independent in vivo immunogenicity studies, female BALB/c mice were immunized intramuscularly twice three weeks apart (days 0 and 21) with 0.5 μg of RSV antigen alone or mixed with 2 nmol of Example 1 adjuvant (Compound 1). Sera were collected at day 35 to determine RSV neutralization antibody titers (nAb). The RSV antigen tested was bivalent comprising a RSV F Protein of Subtype A comprising the sequence of SEQ ID NO: 1 and SEQ ID NO: 2, as well as a RSV F Protein of Subtype B comprising the sequence of SEQ ID NO: 3 and SEQ ID NO: 4.
50% nAb responses against RSV A strain (M37) were measured by an RSV microneutralization assay at 2 weeks post dose 2.

Another experiment deals with S. pneumoniae serotype 3. The class given is in vivo, female Swiss-Webster mice. Particulars: mouse.

What is called EC50 is the concentration at which the effect is half-maximal. Read a high EC50 as a need for much substance.

`CCCCc1nc2c(N)nc3cc(CCCN4CCN(C(=O)CCOCCOCCOCCOCCOCCOCCOCCOCCOCCOCCOCCOCCOCCOCCOCCOCCOCCOCCOCCOCCOCCOCCOCCOCCNC(=O)CCOCCOCCOCCOCCNC(=O)O[C@H]5CC[C@@]6(C)C(=CC[C@H]7[C@@H]8CC[C@H]([C@H](C)CCCC(C)C)[C@@]8(C)CC[C@@H]76)C5)CC4)ccc3c2n1CC(C)(CO)CO` [Compound 1, (3beta)-cholest-5-en-3-yl {91-[4-(3-{4-amino-2-butyl-1-[3-hydroxy-2-(hydroxymethyl)-2-methylpropyl]-1H-imidazo[4,5-c]quinolin-7-yl}propyl)piperazin-1-yl]-15,91-dioxo-3,6,9,12,19,22,25,28,31,34,37,40,43,46,49,52,55,58,61,64,67,70,73,76,79,82,85,88-octacosaoxa-16-azahennonacont-1-yl}carbamate]: the values for the EC50 in experiment [1] and in experiment [2] were 122 nM and 1360 nM, respectively. Further, the “50% neutralizing antibody titers (nAb) to RSV, GMT” value in the experiment with RSV A strain (M37) (Study 1) was found to be 7502; in the experiment with RSV A strain (M37) (Study 2), 5362. Further, the “OPA geometric mean titers (GMT)” value in the experiment on S. pneumoniae serotype 3 (0.1 μg S. pneumoniae serotype 3-CRM197 antigen with adjuvant (2 nmol; AlPO4 100 μg), IM weeks 0 and 3, sera week 5) is 833. In addition, the “OPA geometric mean titers compared with reference adjuvants” value with S. pneumoniae serotype 3 (S. pneumoniae serotype 3 antigen, versus aluminum phosphate and free TLR 7/8 agonist) was “higher average OPA geometric mean titers than aluminum phosphate, as well as the free TLR 7/8 agonist molecule”.
As to `CCCCc1nc2c(N)nc3cc(CCCN4CCN(C(=O)OCc5ccc(NC(=O)[C@H](CCCNC(N)=O)NC(=O)[C@@H](NC(=O)COCCOCCNC(=O)O[C@H]6CC[C@@]7(C)C(=CC[C@H]8[C@@H]9CC[C@H]([C@H](C)CCCC(C)C)[C@@]9(C)CC[C@@H]87)C6)C(C)C)cc5)CC4)ccc3c2n1CC(C)(CO)CO` [Compound 28, 4-((12S,15S)-1-(((3beta)-cholest-5-en-3-yl)oxy)-12-isopropyl-1,10,13-trioxo-15-(3-ureidopropyl)-5,8-dioxa-2,11,14-triazahexadecan-16-amido)benzyl 4-(3-(4-amino-2-butyl-1-(3-hydroxy-2-(hydroxymethyl)-2-methylpropyl)-1H-imidazo[4,5-c]quinolin-7-yl)propyl)piperazine-1-carboxylate], the EC50 in experiment [1] is 1890 nM; in experiment [2], 4480 nM.
